Data: PubChem BioAssay AID651684 (Sanford-Burnham Center for Chemical Genomics, 2012)
Calls of active or inactive are those of the source.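 Rule for the calls: active = any single replicate giving an EC50 below 30 µM; inactive = the rest.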

Test system: Pro5-aDG cells, alpha-DG glycosylation, IIH6 AlphaLISA
Test: alpha-DG glycosylation activators, EC50, dose response, Pro5-aDG cells, AlphaLISA (AID 651684)

Compound	EC50
Cc1cccc(/C=C2/Sc3ccc(C(=O)NCCN4CCCC4)cc3NC2=O)c1	> 80 µM (inactive)
CCCCCNCC(=O)Nc1cccc(C(=O)Nc2cccc(C(F)(F)F)c2)c1	11.6 µM
CNc1nc(-c2c[nH]c3ccccc23)cs1	4.99 µM
CCc1nc2ccc(C(=O)NC3CCN(Cc4ccccc4)CC3)cn2c1N(C)Cc1cc2ccccc2s1	6.07 µM
O=C1C(=O)N(CCS(=O)(=O)c2ccccc2)c2ccc(F)cc21	9.36 µM
CC1CCCN(S(=O)(=O)c2ccc(C(=O)Nc3sc4c(c3C(N)=O)CCN(C)C4)cc2)C1 (configuration not stated)	12.3 µM
CC(C)(C)c1ccc(C(=O)Nc2ccc(C(=O)NCc3cccnc3)cc2)cc1	2.48 µM
COc1ccccc1NC(=O)Nc1nc(C(N)Cc2ccccc2)cs1 (configuration not stated)	> 80 µM (inactive)
N#Cc1ccc(-c2nc3c4ccccc4ccn3c2CC2CCCCC2)cc1	7.97 µM
CC(=O)c1ccc(N2CCN(C(=O)Nc3ccc(C(C)C)cc3)CC2)cc1	12.8 µM
C/C=C/c1ccc(OCCCNC2CCCC2)c(OC)c1	11.7 µM
C/C(=N/NC(=O)C(O)(c1ccccc1)c1ccccc1)c1ccc([N+](=O)[O-])o1	12.7 µM
N#Cc1ccsc1NC(=O)c1cccc(-n2cnnn2)c1	20.7 µM
Cc1cc(Br)ccc1OCCCCNC(C)(C)C	12.2 µM
CCn1cc(CN2CCC(C(=O)Nc3cccc(-c4cccc(Cl)c4)c3)CC2)c(C)n1	6.99 µM
CCC(C)Nc1nc(-c2c[nH]c3ccccc23)cs1 (configuration not stated)	4.36 µM
CN(C)CCCNC(=O)/C=C/c1ccc(OCc2c(F)cccc2Cl)cc1	9.37 µM
CC(=O)Oc1c(Cl)cc(N(C(C)=O)S(=O)(=O)c2ccccc2)c2ccccc12	3.17 µM
CN1CCN(c2ccc(S(=O)(=O)N3CCCCC3)cc2NC(=O)/C=C/c2ccc(OC(F)F)cc2)CC1	> 80 µM (inactive)
CCOc1ccc(NC(=O)c2ccc(F)c(S(=O)(=O)N3CCN(c4ccccn4)CC3)c2)cc1	> 80 µM (inactive)
NC(c1csc(Nc2cc(Oc3ccccc3)ncn2)n1)C1CCCCC1 (configuration not stated)	7.32 µM

Compound	EC50
Cc1cncn1CCc1nc2c3ccccc3nc(SCC(=O)Nc3cccc(Cl)c3)n2n1	> 80 µM (inactive)
CC(C)N1CCN(c2ccc(OCC3COC(Cn4cncn4)(c4ccc(Cl)cc4Cl)O3)cc2)CC1 (configuration not stated)	9.77 µM
Cc1ccnc(-n2c(C)nc3ccccc3c2=O)c1	> 80 µM (inactive)
O=C1C(Cl)=C(NCc2ccco2)C(=O)c2ccccc21	4.97 µM
CN1CCN(c2ncnc3c2ncn3[C@H]2CN(Cc3ccc(-c4ccccc4)cc3)C[C@@H](CO)O2)CC1	16.1 µM
CC(C)c1ccc(-c2cc(C(=O)N3CCOCC3)c3cc(Br)ccc3n2)cc1	6.31 µM
Cc1nc(SCC(=O)Nc2cc(C(N)=O)cc(C(N)=O)c2)c2c(C)c(C)sc2n1	28.5 µM
O=C(CNC(=O)c1ccccc1)N/N=C/c1ccc([N+](=O)[O-])s1	6.46 µM
COc1ccc(CN2CCC(C(=O)Nc3ccc(Oc4cccnc4)cc3)CC2)c(C)c1C	8.89 µM
COc1cccc(C(=O)Cn2c(=N)n(C)c3ccccc32)c1	58.4 µM (inactive)
Cc1cccc(NC(=S)N(CCCN2CCCC2)Cc2cccn2Cc2ccc(Cl)cc2)c1	> 80 µM (inactive)
COc1cc(/C=C/C(=O)Nc2nc3ccc(S(=O)(=O)NC(C)C)cc3s2)cc(OC)c1OC	9.21 µM
CCCn1c(=N)n(CC(=O)c2ccc(Cl)c(Cl)c2)c2ccccc21	31.2 µM (inactive)
N#Cc1ccsc1NC(=O)c1ccc2ncsc2c1	42.7 µM
CCN(CC)CCn1c(=N)n(CC(=O)c2ccc(C)cc2)c2ccccc21	24.5 µM
COc1cc2[nH]c3c(=O)n4c(nc3c2cc1OC)SCCC4	6.47 µM
COc1cc(CNCCN(C)C)ccc1OCc1c(F)cccc1Cl	18 µM
CCCCCOc1ccc(/C(C)=N/NC2=NCCN2)cc1	5.81 µM
CN(C)CCCNS(=O)(=O)c1ccc(NC2CCCCCC2)c([N+](=O)[O-])c1	6.11 µM
CS(=O)(=O)c1ccc(Nc2nc(C(N)Cc3ccc(Cl)cc3)cs2)cc1 (configuration not stated)	8.93 µM
CCCCN1CCc2c1nc1ccc(Br)cc1c2N	> 80 µM (inactive)

Compound	EC50
N=c1n(CCN2CCOCC2)c2ccccc2n1CC(=O)c1ccc(Cl)c(Cl)c1	47.1 µM (inactive)
Brc1ccc2ncnc(NCc3ccccc3)c2c1	3.34 µM
CCOC(=O)c1cc(-c2ccc(F)cc2)n(CCC(=O)NC2CCN(Cc3ccccc3)CC2)c1C	> 80 µM (inactive)
CN1CCN(S(=O)(=O)c2cccc(C(=O)Nc3sccc3C#N)c2)CC1	37.6 µM
COCCN1CCC(CNCc2cn(-c3cc(C)ccc3C)nc2-c2ccccc2)C1 (configuration not stated)	> 80 µM (inactive)
C=CCn1c(=N)n(CC(=O)c2ccc(Cl)cc2)c2ccccc21	41.6 µM (inactive)
CCCC[n+]1ccn(C2=C([O-])c3ccccc3C(=O)/C2=N\S(=O)(=O)c2ccc(Br)cc2)c1	6.95 µM
CN1N=C(N)c2cn(C3OC(COP(=O)(O)O)C(O)C3O)c3ncnc1c23 (configuration not stated)	35.1 µM (inactive)
CCn1c(=N)n(CC(=O)c2ccc(Cl)c(Cl)c2)c2ccccc21	32 µM (inactive)
CC(C)OC(=O)CN1C(=O)C(=O)c2ccccc21	6.56 µM
Cc1cc(NC2=CC(=O)C(=O)c3ccccc32)no1	6.66 µM
c1ccc2c(-c3cc(C4CCNCC4)[nH]n3)cccc2c1	> 80 µM (inactive)
CCOc1ccc(-n2cc(C(=O)N3CCCCCC3)c3cc(OC)c(OC)cc3c2=O)cc1	5.6 µM
COc1cc(CNC(=O)Nc2nc(C(N)Cc3ccc(Cl)cc3)cs2)cc(OC)c1OC (configuration not stated)	> 80 µM (inactive)
Cc1cc(NCc2ccccn2)n2ncc(-c3ccc(Cl)cc3)c2n1	3.48 µM
CCc1ccc(C2c3[nH]c4ccccc4c3CCN2C(=O)CN2CCN(CC)CC2)cc1 (configuration not stated)	> 80 µM (inactive)
O=C(Nc1ccccc1F)c1ccc([N+](=O)[O-])s1	8.89 µM
N=c1c2c(ncn1CCCO)Oc1c(ccc3ccccc13)C2c1ccccc1 (configuration not stated)	> 80 µM (inactive)
O=C(Nc1cccc2ccccc12)c1ccc([N+](=O)[O-])s1	6.88 µM
CCOc1ccc(N2CC(C(=O)N3CCN(c4ccccn4)CC3)CC2=O)cc1 (configuration not stated)	11.8 µM
CC(C)c1ccc(NC(=O)C2Cc3c(-c4ccc(Cl)cc4)ccnc3O2)cc1 (configuration not stated)	3.98 µM

Compound	EC50
CC(C)Oc1ccc(OCCCN2CCCCCC2)cc1	12.4 µM
COCCNc1nc(NCCOc2ccccc2)c2sc(-c3ccccc3)cc2n1	7.86 µM
CC1CCCN(CCCNC(=O)c2nn(C)c3c2CSc2ccccc2-3)C1 (configuration not stated)	8.18 µM
Cn1c(=N)n(CC(=O)c2ccc(Br)cc2)c2ccccc21	42.7 µM (inactive)
CC(C)n1cc(CN2CCCC(C(=O)Nc3cccc(-c4cc5ccccc5[nH]4)c3)C2)cn1 (configuration not stated)	> 80 µM (inactive)
CCCCN(C)CCNC(=O)c1cc(-c2cccnc2)nc2ccc(S(=O)(=O)N3CCC(C)CC3)cc12	> 80 µM (inactive)
Cc1cc(C)n(-c2nc(NCCCN(C)C)c3c4c(sc3n2)CCCC4)n1	16.1 µM
CCC(c1nnnn1Cc1cccs1)N1CCN(c2nc3ccccc3s2)CC1 (configuration not stated)	22.6 µM
Cc1ccc(NC(=O)c2ccc([N+](=O)[O-])s2)cc1S(=O)(=O)N1CCOCC1	5.92 µM
CCOC(=O)N/N=C\c1ccc([N+](=O)[O-])s1	12.3 µM
CCCCCOc1ccc(NC(=O)C(=O)NCC2CCCN2CC)cc1 (configuration not stated)	8.54 µM
O=C(CNC(=O)c1ccccc1Cl)N/N=C/c1ccc([N+](=O)[O-])s1	7.48 µM
Brc1cccc(-c2nc3c4ccccc4ccn3c2CC2CCCCC2)c1	23.7 µM
CCc1ccc(C(CNC(=O)c2ccc3c(=O)n(-c4ccccc4F)c(=S)[nH]c3c2)N(C)C)cc1 (configuration not stated)	1.9 µM
CC(C)COc1ccc(CSCCNC(=S)Nc2ccccc2)cc1	6.37 µM
c1cncc(-c2nnc(-c3cccnc3)nn2)c1	8.73 µM
CCCn1c(=N)n(CC(=O)c2ccc(Cl)cc2)c2ccccc21	33.6 µM
Cc1cccc(CN2CCC(CNC(=O)Nc3ccc(F)c(Cl)c3)CC2)c1	8.57 µM
COc1ccc(Cc2nc(-c3ccc(NC(=O)c4cccnc4)cc3)no2)cc1	1.52 µM
